One assay has as its target T1, human PPAR α (Homo sapiens, UniProt Q07869).
T1 construct: expressed in transfected cells; host or cells: CV-1 cells
T1 sequence (Q07869 167-468): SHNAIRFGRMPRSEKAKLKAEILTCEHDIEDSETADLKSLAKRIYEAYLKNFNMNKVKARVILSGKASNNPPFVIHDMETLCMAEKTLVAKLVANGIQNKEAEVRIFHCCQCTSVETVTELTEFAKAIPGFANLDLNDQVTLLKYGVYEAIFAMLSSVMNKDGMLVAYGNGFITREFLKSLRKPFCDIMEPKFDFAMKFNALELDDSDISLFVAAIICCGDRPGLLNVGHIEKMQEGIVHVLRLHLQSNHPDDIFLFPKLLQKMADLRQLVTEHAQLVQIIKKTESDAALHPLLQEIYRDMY
The assay is described as follows: Luciferase assay using human PPAR α (PPAR α agonistic activity). As to conditions: compound 10 μM; luciferase activity of carbacyclin (10 μM) defined as 1.0; CV-1 cells with Gal4-human PPAR α ligand binding domain chimera, 42 hours. The class given is cell-based.

Another assay concerns the target T2, human PPAR γ (Homo sapiens, UniProt P37231).
T2 construct: expressed in transfected cells; host or cells: CV-1 cells
T2 sequence (P37231 204-505): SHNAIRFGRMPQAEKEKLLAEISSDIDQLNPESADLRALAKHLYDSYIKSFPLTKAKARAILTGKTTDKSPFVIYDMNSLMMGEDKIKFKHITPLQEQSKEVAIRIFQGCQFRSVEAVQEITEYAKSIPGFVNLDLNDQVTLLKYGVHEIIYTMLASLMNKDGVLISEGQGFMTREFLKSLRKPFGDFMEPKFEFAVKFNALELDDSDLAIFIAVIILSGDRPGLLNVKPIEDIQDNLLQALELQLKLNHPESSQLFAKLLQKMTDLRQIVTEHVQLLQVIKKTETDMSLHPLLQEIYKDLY
The assay is described as follows: Luciferase assay using human PPAR γ (PPAR γ agonistic activity). The class given is cell-based. The settings on record: compound 10 μM; luciferase activity of troglitazone (10 μM) defined as 1.0; CV-1 cells with Gal4-human PPAR γ ligand binding domain chimera, 42 hours.

As to `Cc1ccc(-c2nc(CCOc3cccc4c3CCCN4CCC(=O)O)c(C)o2)cc1` [Example 2], at human PPAR α, the “Relative Activity to a positive control compound (carbacyclin = 1)” value came out at 0.5. Also, the “Relative Activity to a positive control compound (troglitazone = 1)” value at human PPAR γ turned out to be 6.7.

The record behind these values is US6924295B2, “Tetrahydroquinoline derivative compound and drug containing the compound as active ingredient” (Ono Pharmaceutical Co., Ltd., priority 2001, dated 2005).
